Assay results: patent US20230270764A1, “COMPOSITION COMPRISING CANNABINOIDS, TERPENES, AND FLAVONOIDS FOR TREATING DEPRESSION” (priority 2020, published 2023)

Columns and labels:
BV2 microglial cells [1] = test: LPS-induced IL-6 release by BV2 microglia cell cultures (ELISA); type: cell-based, murine; conditions: for IC50: Mus musculus
Experimental: (§1) The BV2 murine microglial cell line is used in these studies.
(§2) The BV2 cells are cultured at 37° C. in a humidified atmosphere with 5% CO2 in high D-glucose (4.5 g/L) Dulbecco’s modified Eagle’s medium (Sigma, Rehovot, Israel) supplemented with 5% heat-inactivated fetal bovine serum, streptomycin (100 µg/ml), and penicillin (100 units/ml) and sodium pyruvate (1 mM; all from Biological Industries Ltd., Kibbutz Beit Haemek, Israel). 24 hours before experiments with LPS stimulation, the BV2 cells are split into 24 well plates, 2×10^5 cells per well, covered with 1 ml of growth medium and allowed to attach overnight. 24 hr before experiments with α-synuclein, the BV2 cells are split into 96-well plates, 50,000 (5×10^4) cells per well, covered with 200 µl of growth medium and allowed to attach overnight. Cultures of BV2 microglia cells are first treated by an individual cannabinoid, or terpene or flavonoid selected from: Cannabidiol (CBD), Δ-9-tetrahydrocannabinol (THC), Δ-8-tetrahydrocannabinol (THC), cannabigerol (CBG), cannabichromene (CBC), cannabigerolic acid (CBGA), Cannabidiolic acid (CBDA), THC acid (THCA), cannabichromenic Acid (CBCA), Cannabidivarin (CBDV), tetrahydrocannabivarin (THCV), Cannabichromevarin (CBCV), Cannabichromerocin ([…]), Cannabivarin (CBV), Cannabicitran (CBT), Cannabinol (CBN), Cannabicyclol (CBL), Cannabigerorcin (CBGO), Cannabinodiol (CBND), β-caryophyllene, β-elemene, β-myrcene, linalool, α-pinene, β-pinene, eucalyptol, alpha-terpineol, valencene, geraniol (lemonol), bisabolol, nerolidol, ocimene, terpinolene, humulene, α-terpinene, camphene, fenchol, α-phellandrene, Δ3-carene, γ-cardinene, sabinene, limonene, β-amyrin, cycloartenol, cannflavin A, cannflavin B, kaempferol, quercetin, luteolin, apigenin, canniprene, orientin, β-sitosterol, vitexin, isovitexin, and chrysin. Additional cultures of BV2 microglia cells are treated by an individual cannabinoid, with at least one additional cannabinoid, and/or terpene, and/or flavonoid, and/or celecoxib. Additional cultures are exposed to the vehicle of these compounds (cremophor, ethanol and PBS, 1:1:18 (v/v/v)) (FIG. 2A). In some studies, cultures of BV2 microglia cells are treated by a specific whole plant cannabis extract, with or without supplementation with cannabinoid(s), and/or terpene(s) and/or flavonoid(s), and/or celecoxib (FIG. 2B).
(§3) For each individual cannabinoid mentioned above, 3-4 concentrations are used, ranging from 0.1 to 10 µM. For ultra-low dose Δ9-THC the concentration used is 0.01 µM. For each individual terpene or flavonoid mentioned above, 3-4 concentrations are used, ranging from 1 to 50 µM. For celecoxib, 3-4 concentrations are used, ranging from 0.1 to 10 µM. Two hours following the treatment, the cultures are exposed to one of the following microglia stimulators: LPS (Sigma L2630; Escherichia coli serotype O111:B4) is dissolved in D-PBS (Sigma, D8537) to a pre-stock concentration of 1 mg/ml, aliquoted and stored at -80° C. Stock solution of LPS at 10 ug/ml is prepared using sterile D-PBS, followed by filtering via 0.22 µm filter membrane, aliquoting and storing in -20° C. LPS is applied into the cell medium at a final concentration of 100 ng/ml. Poly I:C (Sigma, P1530) was first dissolved in sterile, molecular grade water to the concentration of 10 mg/ml (following the manufacturer’s instructions). This stock solution was further diluted to the concentration of 1 mg/ml in sterile PBS, and the aliquots stored in -20 °C.

BV2 microglial cells [2] = test: LPS-induced IL-1β release by BV2 microglia cell cultures (ELISA); type: cell-based, murine; conditions: for IL-1β secretion vs Veh plus LPS: Example 4, by itself at 5 µM, not at 1 or 2.5 µM; for IC50: Mus musculus
Experimental: as §1, §2, §3

BV2 microglial cells [3] = test: Poly I:C-induced TNFα release by BV2 microglia; type: cell-based, murine; conditions: 5 and 10 µM
Experimental: (§4) The BV2 cells are cultured at 37° C. in a humidified atmosphere with 5% CO2 in high D-glucose (4.5 g/L) Dulbecco’s modified Eagle’s medium (Sigma, Rehovot, Israel) supplemented with 5% heat-inactivated fetal bovine serum, streptomycin (100 µg/ml), and penicillin (100 units/ml) and sodium pyruvate (1 mM; all from Biological Industries Ltd., Kibbutz Beit Haemek, Israel). 24 hours before experiments with LPS stimulation, the BV2 cells are split into 24 well plates, 2×10^5 cells per well, covered with 1 ml of growth medium and allowed to attach overnight. 24 hr before experiments with α-synuclein, the BV2 cells are split into 96-well plates, 50,000 (5×10^4) cells per well, covered with 200 µl of growth medium and allowed to attach overnight. […]

BV2 microglial cells [4] = test: Poly I:C-induced IL-6 release by BV2 microglia; type: cell-based, murine; conditions: 10 µM
Experimental: as §4

BV2 microglial cells [5] = test: α-synuclein-induced TNFα secretion by BV2 microglia cell cultures; type: cell-based, murine
Experimental: as §2
as §3, with “°C. […] To induce oligomerization, α-Synuclein solution is placed for 24 hours on a shaker with agitation of 80 rpm and at 37° C.” for “°C.”

C57BL/6 mice = test: Porsolt forced swim test; type: in vivo; conditions: CLX 10 mg/kg; CBD 5 mg/kg i.p.
Source text: All experiments were approved by the Hebrew University of Jerusalem Ethics Committee on Animal Care and Use. […] All data are presented as mean ± SEM.

[6] = test system: treatment-resistant major depression patients; test: Clinical trial of celecoxib plus CBD in treatment-resistant major depression patients; type: in vivo, human; conditions: celecoxib or CBD, each by itself
Experimental: In the current study, the antidepressant effect of a combination of celecoxib and CBD is tested in a randomized, prospective, double-blind clinical trial in 80 treatment-resistant major depression patients of both genders, in the age range of 23-70 years. […] The safety and efficacy of celecoxib, CBD and their combination vs. vehicle placebo are assessed. Primary endpoints include the changes from baseline to post-treatment in overall depression levels, and particularly in the vegetative and somatic symptoms of depression, which are highly associated with the inflammatory status of the patients. Secondary endpoints include the changes from baseline to post-treatment in anxiety levels, overall functioning and clinical impression, as well as anhedonia.
Treatment-resistant depressed patients undergo psychological assessment using the Montgomery-Asberg Depression Rating Scale (MADRS), with further analysis of the 3 specific factors of this scale (vegetative symptoms, dysphoria, and retardation), the Somatic Symptoms Scale-8, the Hamilton Anxiety Rating Scale (HARS), the Clinical Global Improvement and Severity Scales (CGI-I and CGI-S), and the Snaith-Hamilton Pleasure Scale (SHAPS). Subjects are treated twice daily (per os) with either a formulation containing celecoxib and CBD or with vehicle placebo. […]

Structure (SMILES): C=C(C)[C@@H]1CCC(C)=C[C@H]1c1c(O)cc(CCCCC)cc1O [CBD, cannabidiol]
- release of IL-6 (BV2 microglial cells [1]; Example 3, 10 µM): significantly inhibited
- IL-6 secretion vs Veh plus LPS (BV2 microglial cells [1]; Example 6, CBD or CBDV given by themselves): no significant effect
- LPS-induced IL-6 release (BV2 microglial cells [1]; Example 25, CBD, CannA, CannB 5 and 10 µM, CannC 10 µM): significantly decreased
- IC50 (BV2 microglial cells [1]; BV-2, Example 6 (FIG. 7D), by itself, read-out: IC50 for inhibiting LPS-induced IL-6 release): 4.3 µM
- IC50 (BV2 microglial cells [1]; BV-2, Example 6, addition of 1 µM CBDV, read-out: CBD IC50, LPS-induced IL-6 release): 3.1 µM
- IC50 (BV2 microglial cells [1]; BV-2, Example 6, addition of 2.5 µM CBDV, read-out: CBD IC50, LPS-induced IL-6 release): 2 µM
- IC50 (BV2 microglial cells [1]; BV-2, Example 6, addition of 5 µM CBDV, read-out: CBD IC50, LPS-induced IL-6 release): 1.7 µM
- IC50 (BV2 microglial cells [1]; BV-2, Example 25 (FIG. 25E), extracts calculated on dominant cannabinoid, read-out: IC50 for IL-6 inhibition): 5.9 µM
- IL-1β levels (BV2 microglial cells [2]; Example 3, 5 and 10 µM): effectively reduced
- IL-1β secretion vs Veh plus LPS (BV2 microglial cells [2]): effective in decreasing IL-1β
- IL-1β release vs Veh plus LPS (BV2 microglial cells [2]; Example 5, alone at 5 µM, no effect at 1 and 2.5 µM): decreased the IL-1β levels significantly
- LPS-induced IL-1β secretion (BV2 microglial cells [2]; Example 7, CBD 5 µM by itself (p<0.001)): significant suppression of IL-1β secretion
- LPS-induced IL-1β release (BV2 microglial cells [2]; Example 25, CannA, CannB 2.5, 5 and 10 µM, CBD, CannC 5 and 10 µM): significantly reduced
- IC50 (BV2 microglial cells [2]; BV-2, read-out: CBD IC50, LPS-induced IL-1β release, Example 4, addition of 1 µM kaempferol): 3.3 µM
- IC50 (BV2 microglial cells [2]; BV-2, read-out: CBD IC50, LPS-induced IL-1β release, Example 4, addition of 2.5 µM kaempferol): 2.1 µM
- IC50 (BV2 microglial cells [2]; BV-2, read-out: CBD IC50, LPS-induced IL-1β release, Example 4, addition of 5 µM kaempferol): 1.1 µM
- IC50 (BV2 microglial cells [2]; BV-2, read-out: CBD IC50, LPS-induced IL-1β release, Example 5, addition of 1 µM quercetin): 2.1 µM
- IC50 (BV2 microglial cells [2]; BV-2, read-out: CBD IC50, LPS-induced IL-1β release, Example 5, addition of 2.5 µM quercetin): 1.7 µM
- IC50 (BV2 microglial cells [2]; BV-2, read-out: CBD IC50, LPS-induced IL-1β release, Example 5, addition of 5 µM quercetin): 0.5 µM
- IC50 (BV2 microglial cells [2]; BV-2, read-out: IC50 for IL-1β inhibition, Example 25 (FIG. 25F), extracts calculated on dominant cannabinoid): 4.7 µM
- IC50 (BV2 microglial cells [2]; BV-2, read-out: IC50 for inhibiting LPS-induced IL-1β release, Example 4 (FIG. 5D), by itself): 4.5 µM
- IC50 (BV2 microglial cells [2]; BV-2, read-out: IC50 for inhibiting LPS-induced IL-1β release, Example 5 (FIG. 6D), by itself): 3.3 µM
- Poly I:C-induced TNFα release (BV2 microglial cells [3]): significantly decreased
- Poly I:C-induced IL-6 (BV2 microglial cells [4]): markedly decreased
- secretion of TNFα in cells incubated with α-synuclein aggregates/fibrils (BV2 microglial cells [5]; Example 3, 10 µM): reduced
- release of TNFα by microglia incubated with α-synuclein aggregates/fibrils (BV2 microglial cells [5]; Example 8, CBD by itself 1, 2.5 or 5 µM): neither CBD (1, 2.5, or 5 µM) nor celecoxib (1 or 2.5 µM) by themselves affected the release of TNFα
- IC50 (BV2 microglial cells [5]; Mus musculus, BV-2, read-out: IC50, α-synuclein-induced TNFα release, Example 8 (FIG. 9B), by itself): 5.1 µM
- immobility time, each compound by itself (C57BL/6 mice): no significant effects
- changes in depression, anxiety, anhedonia and subjective improvement [6]: only mild changes

Structure (SMILES): O=c1c(O)c(-c2ccc(O)cc2)oc2cc(O)cc(O)c12 [kaempferol]
- IL-1β secretion vs Veh plus LPS (BV2 microglial cells [2]): effective in decreasing IL-1β
- IC50 (BV2 microglial cells [2]; BV-2, Example 4 (FIG. 5D), by itself, read-out: IC50 for inhibiting LPS-induced IL-1β release): 6.2 µM
